What was measured:
[1] = molecular target: Human α2δ-1 subunit of Cav2.2 calcium channel (Homo sapiens, UniProt P54289); test: Binding assay to human α2δ-1 subunit of Cav2.2 calcium channel ([3H]-Gabapentin); conditions: human α2δ-1 enriched membranes, [3H]-Gabapentin 15 nM; read-out: Ki(nM) alpha2delta Hum
Description: Binding Assay to Human α2δ-1 Subunit of Cav2.2 Calcium Channel
Human α2δ-1 enriched membranes (2.5 μg) were incubated with 15 nM of radiolabeled [3H]-Gabapentin in assay buffer containing Hepes-KOH 10 mM, pH 7.4. NSB (non-specific binding) was measured by adding 10 μM pregabalin. The binding of the test compound was measured at either one concentration (% inhibition at 1 or 10 μM) or five different concentrations to determine affinity values (Ki). After 60 min incubation at 27° C., binding reaction was terminated by filtering through Multiscreen GF/C (Millipore) presoaked in 0.5% polyethyleneimine in Vacuum Manifold Station, followed by 3 washes with ice-cold filtration buffer containing 50 mM Tris-HCl, pH 7.4. Filter plates were dried at 60° C. for 1 hour and 30 μl of scintillation cocktail were added to each well before radioactivity reading. Readings were performed in a Trilux 1460 Microbeta radioactive counter (Perkin Elmer).

[2] = molecular target: Human norepinephrine transporter (NET) (Homo sapiens, UniProt P23975); test: Binding assay to human norepinephrine transporter (NET) ([3H]-Nisoxetin); conditions: human NET enriched membranes, [3H]-Nisoxetin 5 nM; read-out: Ki(nM) NET Hum
Description: Binding Assay to Human Norepinephrine Transporter (NET)
Human norepinephrine transporter (NET) enriched membranes (5 μg) were incubated with 5 nM of radiolabeled [3H]-Nisoxetin in assay buffer containing 50 mM Tris-HCl, 120 mM NaCl, 5 mM KCl, pH 7.4. NSB (non specific binding) was measured by adding 10 μM of desipramine. The binding of the test compound was measured at either one concentration (% inhibition at 1 or 10 μM) or five different concentrations to determine affinity values (Ki). After 60 min incubation at 4° C., binding reaction was terminated by filtering through Multiscreen GF/C (Millipore) presoaked in 0.5% polyethyleneimine in Vacuum Manifold Station, followed by 3 washes with ice-cold filtration buffer containing 50 mM Tris-HCl, 0.9% NaCl, pH 7.4. Filter plates were dried at 60° C. for 1 hour and 30 μl of scintillation cocktail were added to each well before radioactivity reading. Readings were performed in a Trilux 1450 Microbeta radioactive counter (Perkin Elmer).

Chain of Human norepinephrine transporter (NET) (P23975 whole entry): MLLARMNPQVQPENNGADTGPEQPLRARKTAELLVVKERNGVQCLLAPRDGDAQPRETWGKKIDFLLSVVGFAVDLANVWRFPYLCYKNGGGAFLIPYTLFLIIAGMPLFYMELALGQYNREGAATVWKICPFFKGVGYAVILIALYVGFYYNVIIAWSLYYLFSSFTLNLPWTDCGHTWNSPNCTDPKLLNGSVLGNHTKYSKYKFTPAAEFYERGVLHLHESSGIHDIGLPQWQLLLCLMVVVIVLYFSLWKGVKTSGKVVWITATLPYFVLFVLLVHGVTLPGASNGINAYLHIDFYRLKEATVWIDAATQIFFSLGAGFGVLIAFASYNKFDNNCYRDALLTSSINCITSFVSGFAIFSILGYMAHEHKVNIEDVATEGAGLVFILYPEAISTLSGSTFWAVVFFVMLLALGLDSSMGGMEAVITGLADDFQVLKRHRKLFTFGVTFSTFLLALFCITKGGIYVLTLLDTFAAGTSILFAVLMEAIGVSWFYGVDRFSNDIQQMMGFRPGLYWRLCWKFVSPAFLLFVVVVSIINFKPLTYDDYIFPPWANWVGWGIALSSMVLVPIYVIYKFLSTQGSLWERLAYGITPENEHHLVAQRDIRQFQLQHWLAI
Chain of Human α2δ-1 subunit of Cav2.2 calcium channel (P54289 25-1103): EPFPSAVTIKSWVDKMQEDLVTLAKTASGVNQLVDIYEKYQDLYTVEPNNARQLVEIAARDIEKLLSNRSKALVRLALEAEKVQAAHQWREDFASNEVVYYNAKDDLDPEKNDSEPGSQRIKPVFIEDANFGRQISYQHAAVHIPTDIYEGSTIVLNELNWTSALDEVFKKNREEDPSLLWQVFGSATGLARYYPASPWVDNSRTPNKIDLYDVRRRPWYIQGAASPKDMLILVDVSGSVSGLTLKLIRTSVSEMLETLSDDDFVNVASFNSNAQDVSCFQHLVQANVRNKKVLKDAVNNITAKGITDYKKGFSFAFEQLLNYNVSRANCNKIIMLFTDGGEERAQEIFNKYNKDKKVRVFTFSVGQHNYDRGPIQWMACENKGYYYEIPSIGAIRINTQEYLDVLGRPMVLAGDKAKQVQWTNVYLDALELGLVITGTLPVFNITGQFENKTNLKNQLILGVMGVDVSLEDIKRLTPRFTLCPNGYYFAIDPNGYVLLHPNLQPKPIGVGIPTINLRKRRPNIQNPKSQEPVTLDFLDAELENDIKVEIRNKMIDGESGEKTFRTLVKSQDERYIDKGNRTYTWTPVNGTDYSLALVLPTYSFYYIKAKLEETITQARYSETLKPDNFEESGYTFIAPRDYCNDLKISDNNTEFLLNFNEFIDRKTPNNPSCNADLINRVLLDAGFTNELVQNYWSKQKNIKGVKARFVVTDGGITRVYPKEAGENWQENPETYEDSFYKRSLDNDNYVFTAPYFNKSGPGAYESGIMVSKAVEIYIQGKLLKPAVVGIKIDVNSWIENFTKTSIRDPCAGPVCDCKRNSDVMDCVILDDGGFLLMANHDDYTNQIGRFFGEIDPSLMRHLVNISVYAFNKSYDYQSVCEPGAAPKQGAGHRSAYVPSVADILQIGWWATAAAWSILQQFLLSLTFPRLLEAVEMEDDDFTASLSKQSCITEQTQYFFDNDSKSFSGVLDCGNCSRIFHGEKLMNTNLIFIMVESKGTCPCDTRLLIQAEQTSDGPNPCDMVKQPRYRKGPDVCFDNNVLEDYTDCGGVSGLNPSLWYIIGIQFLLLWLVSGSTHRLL

For `CNCC[C@H](Oc1cnc(CN2CCN(C)c3ncccc3C2=O)c(F)c1)c1ccccc1` [Example 1, (S)-4-((3-Fluoro-5-(3-(methylamino)-1-phenylpropoxy)pyridin-2-yl)methyl)-1-methyl-1,2,3,4-tetrahydro-5H-pyrido[2,3-e][1,4]diazepin-5-one], the Ki [1] was < 100 nM and the Ki [2] was < 100 nM.
In the case of `CNCC[C@H](Oc1cnc(CN2CCN(C)c3ncc(F)cc3C2=O)c(F)c1)c1cccc(F)c1` [Example 2, (S)-7-fluoro-4-((3-fluoro-5-(1-(3-fluorophenyl)-3-(methylamino)propoxy)pyridin-2-yl)methyl)-1-methyl-1,2,3,4-tetrahydro-5H-pyrido[2,3-e][1,4]diazepin-5-one], the Ki [1] is reported as 100 to 500 nM and the Ki [2] is reported as < 100 nM.
`CNCC[C@H](Oc1cnc(CN2CCN(C)c3nc(N)ccc3C2=O)c(F)c1)c1cccc(F)c1` [Example 3, (S)-8-amino-4-((3-fluoro-5-(1-(3-fluorophenyl)-3-(methylamino)propoxy)pyridin-2-yl)methyl)-1-methyl-1,2,3,4-tetrahydro-5H-pyrido[2,3-e][1,4]diazepin-5-one] was tested, and the Ki [1] was < 100 nM and the Ki [2] was < 100 nM.
`CCNc1ccc2c(n1)N(C)CCN(Cc1ncc(O[C@@H](CCNC)c3cccc(F)c3)cc1F)C2=O` [Example 4, (S)-8-(ethylamino)-4-((3-fluoro-5-(1-(3-fluorophenyl)-3-(methylamino)propoxy)pyridin-2-yl)methyl)-1-methyl-1,2,3,4-tetrahydro-5H-pyrido[2,3-e][1,4]diazepin-5-one] was tested, and the Ki [1] was < 100 nM and the Ki [2] was < 100 nM.
`CNCC[C@H](Oc1cnc(CN2CCN(C)c3ncccc3C2=O)c(Cl)c1)c1cccc(F)c1` [Example 5, (S)-4-((3-chloro-5-(1-(3-fluorophenyl)-3-(methylamino)propoxy)pyridin-2-yl)methyl)-1-methyl-1,2,3,4-tetrahydro-5H-pyrido[2,3-e][1,4]diazapin-5-one] was tested, and the Ki [1] was < 100 nM and the Ki [2] was < 100 nM.
In the case of `CNCC[C@H](Oc1cnc(CN2CCN(C)c3cnc(OC)cc3C2=O)c(F)c1)c1cccc(F)c1` [Example 6, (S)-4-((3-fluoro-5-(1-(3-fluorophenyl)-3-(methylamino)propoxy)pyridin-2-yl)methyl)-7-methoxy-1-methyl-1,2,3,4-tetrahydro-5H-pyrido[3,4-e][1,4]diazepin-5-one], the Ki [1] is reported as < 100 nM and the Ki [2] is reported as < 100 nM.
For `CNCC[C@H](Oc1cnc(CN2CCN(C)c3ncccc3C2=O)c(F)c1)c1cccc(F)c1` [Example 7, (S)-4-((3-fluoro-5-(1-(3-fluorophenyl)-3-(methylamino)propoxy)pyridin-2-yl)methyl)-1-methyl-1,2,3,4-tetrahydro-5H-pyrido[2,3-e][1,4]diazepin-5-one], the Ki [1] was 100 to 500 nM and the Ki [2] was < 100 nM.
In the case of `CNCC[C@H](Oc1cnc(CN2CCN(C)c3ncccc3C2=O)c(F)c1)c1cccs1` [Example 8, (S)-4-((3-Fluoro-5-(3-(methylamino)-1-(thiophen-2-yl)propoxy)pyridin-2-yl)methyl)-1-methyl-1,2,3,4-tetrahydro-5H-pyrido[2,3-e][1,4]diazepin-5-one], the Ki [1] is reported as 100 to 500 nM and the Ki [2] is reported as < 100 nM.

Reference: patent US20210395249A1, “NEW ALKOXYAMINOPYRIDINE DERIVATIVES FOR TREATING PAIN AND PAIN RELATED CONDITIONS” (ESTEVE PHARMACEUTICALS, S.A., priority 2018, published 2021)
